Test results as given in patent US20160202242A1, “CELL DEATH-INDUCING AGENT, CELL GROWTH-INHIBITING AGENT, AND PHARMACEUTICAL COMPOSITION FOR TREATMENT OF DISEASE CAUSED BY ABNORMAL CELL GROWTH” (Nitto Denko Corporation, priority 2014, published 2016).
d = 2'-deoxy (DNA); r = 2'-OH (RNA)

What was measured:
Format in all cases: cell-based, human
[1] = system: A549 cells, MIA PaCa-2 cells, PANC-1 cells, and HCT116 cells; assay: Phase difference images of cells after knockdown three times; conditions: knocked down three times; 7 days after inoculation
Method: As examples of cancer cells, 1×10^5 M7609 cells (human colorectal cancer cells having KRAS mutation) and PANC-1 cells (human pancreatic cancer cells having KRAS mutation) were inoculated to 6 cm Petri dishes and cultured for 18 hours in Roswell Park Memorial Institute 1640 (RPMI 1640, Sigma-Aldrich Corp.) supplemented with 10% fetal bovine serum (FBS) and 0.5% L-glutamine. The culture conditions were 37° C. and 5% CO2, unless otherwise specified. […]
First, for the PANC-1 cells, the MIA PaCa-2 cells, or the HCT116 cells, GST-π siRNA and P21 siRNA each at a final concentration of 25 nM, or GST-π siRNA or P21 siRNA at a final concentration of 25 nM (all added with control siRNA at a final concentration of 25 nM) were added to each of the Petri dishes, while for the A549 cells, GST-π siRNA and P21 siRNA each at a final concentration of 50 nM, or GST-π siRNA or P21 siRNA at a final concentration of 50 nM (added with control siRNA at a final concentration of 50 nM) were added to each of the Petri dishes. […] Seven days after the cell inoculation, the cells were dissociated and collected from the Petri dish by trypsin treatment, and the number of cells was counted. […]

M7609 cells = assay: Senescence beta-galactosidase staining 13 days after inoculation, GST-π knocked down three times; conditions: GST-π siRNA 30 nM added three times
Method: (§1) As examples of cancer cells, 1×10^5 M7609 cells (human colorectal cancer cells having KRAS mutation) and PANC-1 cells (human pancreatic cancer cells having KRAS mutation) were inoculated to 6 cm Petri dishes and cultured for 18 hours in Roswell Park Memorial Institute 1640 (RPMI 1640, Sigma-Aldrich Corp.) supplemented with 10% fetal bovine serum (FBS) and 0.5% L-glutamine. The culture conditions were 37° C. and 5% CO2, unless otherwise specified. Moreover, as an example of cancer cells, 0.5×10^5 A549 cells (human lung cancer cells having KRAS mutation) were inoculated to a 6 cm Petri dish and cultured for 18 hours in a Dulbecco's modified Eagle's medium (DMEM, Sigma-Aldrich Corp.) supplemented with 10% FBS and 1% L-glutamine. Furthermore, as an example of cancer cells, 1×10^5 MIA PaCa-2 cells (human pancreatic cancer cell having KRAS mutation) were inoculated to a 6 cm Petri dish and cultured for 18 hours in DMEM supplemented with 10% FBS and 1% L-glutamine. Furthermore, as an example of cancer cells, 0.5×10^5 HCT116 cells (human colorectal cancer cells having KRAS mutation) were inoculated to a 6 cm Petri dish and cultured for 18 hours in McCoy's 5A Medium (McCoy, Sigma-Aldrich Corp.) supplemented with 10% FBS and 0.5% L-glutamine.
Whether the cell senescence as shown in FIGS. 6 to 9 was could be induced by knocking down GST-π was tested using the M7609 cells. […]

[2] = system: PANC-1, MIA PaCa-2, or A549 cells; assay: Number of cells counted after 5 days of culture, single siRNA transfection; conditions: siRNA 50 nM plus control siRNA 50 nM
Method: as §1, with “Furthermore, as an example of cancer cells, 0.5×10^5 HCT116 cells (human colorectal cancer cells having KRAS mutation) were inoculated to a 6 cm Petri dish and cultured for 18 hours in McCoy's 5A Medium (McCoy, Sigma-Aldrich Corp.) supplemented with 10% FBS and 0.5% L-glutamine.” left out
Meanwhile, the influence of GST-π siRNA and/or P21 siRNA on the number of cells was tested. […] After culture for 5 days without the replacement of the medium, the cells were dissociated and collected from the Petri dish by trypsin treatment, and the number of cells was counted.

P21 mRNA [3] = assay: P21 mRNA level quantified every day to the 4th day after siRNA addition; conditions: A549 or MIA PaCa-2 cells, siRNA 50 nM
Method: as §1, with “Furthermore, as an example of cancer cells, 0.5×10^5 HCT116 cells (human colorectal cancer cells having KRAS mutation) were inoculated to a 6 cm Petri dish and cultured for 18 hours in McCoy's 5A Medium (McCoy, Sigma-Aldrich Corp.) supplemented with 10% FBS and 0.5% L-glutamine.” left out
Moreover, as for the case where GST-π siRNA or control siRNA at a final concentration of 50 nM was added to each of the Petri dishes containing the A549 cells or the MIA PaCa-2 cells, the P21 mRNA level was similarly quantified every day from the day of addition of GST-π siRNA or control siRNA to the 4th day.

P21 mRNA [4] = assay: P21 mRNA level by quantitative PCR 1 day after siRNA transfection; conditions: PANC-1, MIA PaCa-2, or A549 cells, GST-π siRNA 50 nM or 100 nM, vs control siRNA
Method: As examples of cancer cells, 1×10^5 M7609 cells (human colorectal cancer cells having KRAS mutation) and PANC-1 cells (human pancreatic cancer cells having KRAS mutation) were inoculated to 6 cm Petri dishes and cultured for 18 hours in Roswell Park Memorial Institute 1640 (RPMI 1640, Sigma-Aldrich Corp.) supplemented with 10% fetal bovine serum (FBS) and 0.5% L-glutamine. The culture conditions were 37° C. and 5% CO2, unless otherwise specified. Moreover, as an example of cancer cells, 0.5×10^5 A549 cells (human lung cancer cells having KRAS mutation) were inoculated to a 6 cm Petri dish and cultured for 18 hours in a Dulbecco's modified Eagle's medium (DMEM, Sigma-Aldrich Corp.) supplemented with 10% FBS and 1% L-glutamine. […]
GST-π siRNA and P21 siRNA each at a final concentration of 50 nM, GST-π siRNA or P21 siRNA at a final concentration of 50 nM (both added with control siRNA at a final concentration of 50 nM), or GST-π siRNA at a final concentration of 100 nM (without the addition of control siRNA) were added to each of the Petri dishes containing the PANC-1, MIA PaCa-2, or A549 cells. […] After culture for 1 day without the replacement of the medium, the GST-π mRNA level and the P21 mRNA level were quantified by quantitative PCR using 7300 Real Time PCR System (Applied Biosystems, Inc.).

With “GST-π siRNA: siRNA against GST-π; sense GGGAGGCAAGACCUUCAUUtt (SEQ ID NO: 31), antisense AAUGAAGGUCUUGCCUCCCtg (SEQ ID NO: 32) (sense GGGAGGCAAGACCUUCAUUTT; antisense AAUGAAGGUCUUGCCUCCCTG; sugars from the 5' end r19 d2, backbone not given here)” as the substance, how does the “cell morphology / cell senescence-like phenotype in phase difference image” value [1] read?
The value was “became flat and large cells”.

And the “cell senescence (flat and large cells, blue color development by galactosidase staining)” value (M7609 cells)?
Its value is “cell senescence was evoked”.

What about the “number of cells, each siRNA alone” value [2] of the same substance?
Its value is “the number of cells cannot be decreased with respect to the number of inoculated cells, though cell growth is inhibited”.

What about the “expression level of P21 mRNA over time” value (P21 mRNA [3]) of the same substance?
Its value is “increased over time”.

What about the “amount of P21 mRNA” value (P21 mRNA [4]) of the same substance?
The value was “increased”.

With “P21 siRNA: siRNA against P21; sense UCCUAAGAGUGCUGGGCAUtt (SEQ ID NO: 33), antisense AUGCCCAGCACUCUUAGGAtt (SEQ ID NO: 34) (sense UCCUAAGAGUGCUGGGCAUTT; antisense AUGCCCAGCACUCUUAGGATT; sugars from the 5' end r19 d2, backbone not given here)” as the substance, how does the “number of cells, each siRNA alone” value [2] read?
The value was “the number of cells cannot be decreased with respect to the number of inoculated cells, though cell growth is inhibited”.
